Assay results: patent US4518789A, “Phenyl alpha-acyloxyacetamide derivatives and their therapeutic use” (priority 1983, dated 1985)

Columns and labels:
[1] = test system: scratching or licking induced by pruritic agent; experiment: Screening for anti-pruritic effect, topical application, hairless mouse challenged with pruritic agent; assay type: in vivo; conditions: 5% solution topical, 30 minutes observation
From the text: Either the mouse or the rat may be used as a screening model for anti-pruritic compounds. Before testing hair is plucked from the test site of skin in haired animals. Therefore hairless strains of mouse or the strain of rat known as fuzzy rat is preferred as a screening model for the present purpose.
A test composition containing 5% phenyl-alpha-acyloxyacetamide derivative in solution was topically applied to the left dorsal skin of a hairless mouse and a control vehicle solution was topically applied to the right dorsal skin of the same mouse. The same topical applications were repeated three times at 30 minute intervals. A challenging composition containing a pruritic agent, i.e. itch provoking substance, was then topically applied in a volume of 0.05 ml on both left and right dorsal skin of the same mouse. For the next 30 minutes the mouse was carefully observed for signs and symptoms of scratching or licking at the skin sites where the challenging pruritic composition had been topically applied.
If the mouse scratched or licked indiscriminately at both left and right sides, the test composition was determined to have no anti-pruritic property. […] To confirm the anti-pruritic effect of the test composition, the test solution was later topically applied to the right instead of the left dorsal skin of the same mouse. […]

[2] = test system: scratching or licking induced by pruritic agent; experiment: Screening for anti-pruritic effect, systemic (subcutaneous) administration, hairless mouse challenged with pruritic agent; assay type: in vivo; conditions: 5% solution 0.1 ml subcutaneous, twice
Protocol: Either the mouse or the rat may be used as a screening model for anti-pruritic compounds. Again, the hairless mouse or the fuzzy rat is a preferred strain in each species.
A test composition in a volume of 0.1 ml containing 5% phenyl-alpha-acyloxyacetamide derivative in solution was injected subcutaneously to the hairless mouse. The same procedure was repeated once more 3 hours later. Two hours after the second injection the mouse was challenged with a pruritic composition either applied topically or administered subcutaneously. When the challenging composition containing a pruritic agent was given topically the solution in a volume of 0.05 ml was applied to the left dorsal skin. A control vehicle solution containing no pruritic agent in the same volume of 0.05 ml was topically applied on the right dorsal skin. For the next 30 minutes the mouse was carefully observed for signs and symptoms of scratching or licking at the skin sites where the pruritic composition and the control vehicle solution had been topically applied.
If the mouse scratched or licked only the left side of the skin where the pruritic composition had been topically applied the test composition which was injected subcutaneously at two and five hours earlier was determined to have no anti-pruritic property. […]

[3] = test system: Eczemas, and Other Pruritic Disorders; experiment: Topical anti-pruritic effect in patients with pruritic disorders; assay type: in vivo, human; conditions: first category compounds, 2 to 5%
From the text: Patients with various kinds of pruritic disorders participated in this study. The cases included atopic eczema, patchy eczema, chronic eczema of the hands, lichen simplex chronicus, contact allergic eczema, pruritus of the aged, pruritus of hepatic origin, pruritus ani, pruritus vulvae, scalp pruritus and pruritus of other disorders such as mycosis fungoides, psoriasis and pityriasis rubra pilaris.
Therapeutic compositions containing phenyl-alpha-acyloxyacetamides at 2 to 5% concentrations in cream, ointment, lotion or solution were prepared according to the Examples. The medicinal compositions were topically applied by the patient in an amount sufficient to cover the itching area of skin. Applications were made one to two times daily or as frequently as necessary and without occlusive dressings.
Two parameters have been used to compare degrees of anti-pruritic effect of phenyl-alpha-acyloxyacetamides. The first parameter is whether the relief of itching is complete (2+) or incomplete (1+). The second parameter is the number of hours the patient stays free of pruritus after the initial anti-pruritic effect. […] Therefore, the overall anti-pruritic effect of a compound may range from 2+ to 4+. […] 4+ for complete relief and lasting for more than 8 hours.

[4] = test system: calming or quieting behaviour; experiment: Tranquilizing effect, topical administration in hairless mice; assay type: in vivo; conditions: 5% solution topical
Protocol: Hairless mice, ten in each group, were used in this study. N-phenethyl phenyl-alpha-acetoxyacetamide, N-ethyl phenyl-alpha-acetoxyacetamide or other phenyl-alpha-acyloxyacetamide derivative of the instant invention was prepared as a 5% solution in acetone: water, 8:2 or ethanol:water, 8:2. A test solution was topically applied to the left dorsal skin of hairless mice. The same topical applications were repeated three times at 30 minute intervals. A vehicle alone solution containing acetone and water or ethanol and water was used as a control. For the next 8 hours and also 24 hours later all mice were carefully observed and examined for any signs or evidence of calming or quieting effects caused by the test compound.
Normally when a mouse is picked up by the tail with thumb and forefinger the mouse struggles trying to free itself; and if the mouse is placed on a horizontal metallic grid uniformly spaced at 8 mm, the mouse nervously pulls itself across the grid, again trying to free itself from the restraining grip of the fingers.
If during the above observation period the mouse behaved the same before and after the topical treatment when picked up by the tail and placed on the metallic grid, the test compound was determined to have no significant tranquilizing effect by topical administration.

[5] = test system: calming or quieting behaviour; experiment: Tranquilizing effect, subcutaneous administration in mice; assay type: in vivo, hairless mice, white hairy mice; conditions: 1 to 2% solution
Protocol: (§1) Hairless mice, white hairy mice and dogs were used in these studies.
N-phenethyl phenyl-alpha-acetoxyacetamide, N-ethyl phenyl-alpha-acetoxyacetamide or other phenyl-alpha-acyloxyacetamide derivative of the instant invention was prepared as a 1 to 2% solution or as gelatin capsules containing 75 to 300 mg per capsule of the active ingredient. Hairless mice or white hairy mice five in each group were injected subcutaneously with the test solution in a volume of 0.1 ml. The same procedure was repeated once more 3 hours later. For the next 8 hours and also at 24 hours later, all the mice were carefully observed and examined for any signs and evidences of calming or quieting effects caused by the test compound.
Parameters and criteria used for sedative or tranquilizing effect were the same as that described in the foregoing section.

[6] = test system: calming or sedative effects; experiment: Tranquilizing effect, oral administration in dogs; assay type: in vivo; conditions: test compounds 5 to 10 mg per kg
Protocol: as §1
Three dogs weighing between 10 to 20 kg were given orally N-phenethyl phenyl-alpha-acetoxyacetamide or N-ethyl phenyl-alpha-acetoxyacetamide in gelating capsules at doses of 5 to 10 mg per kg.

pruritus ani = experiment: Topical treatment of pruritus ani; assay type: in vivo, human; conditions: 1 to 5 percent, regular basis
From the text: (§2) It has already been established through tests in animals and humans that phenyl alpha-acyloxyacetamide derivatives are therapeutically effective for topical or systemic treatment of various dermatologic and other conditions.

common scratching = experiment: Systemic treatment of domestic dogs for common scratching; assay type: in vivo; conditions: oral single dose 5 to 10 mg per kg
From the text: as §2

CC(=O)OC(C(=O)NCCc1ccccc1)c1ccccc1 (stereo not drawn) [N-phenethyl phenyl-alpha-acetoxyacetamide]
Anti-pruritic Effect [1]: substantial anti-pruritic effect | Anti-pruritic Effect [2]: substantial anti-pruritic effect | Anti-pruritic Effect [3]: 4+ (complete relief and lasting for more than 8 hours) | tranquilizing effect [4]: marked degrees of tranquilizing effect | tranquilizing effect [5]: marked degrees of calming effect | tranquilizing / sedative effect [6]: mild tranquilizing effect | relief from itching and scratching (pruritus ani): complete relief from itching and scratching | relief of scratching, duration (common scratching): more than 8 hours

CCNC(=O)C(OC(C)=O)c1ccccc1 (stereo not drawn) [N-ethyl phenyl-alpha-acetoxyacetamide]
Anti-pruritic Effect [1]: substantial anti-pruritic effect | Anti-pruritic Effect [2]: substantial anti-pruritic effect | Anti-pruritic Effect [3]: 4+ (complete relief and lasting for more than 8 hours) | tranquilizing effect [4]: no detectable signs of sedation | tranquilizing effect [5]: no detectable signs of sedation | tranquilizing / sedative effect [6]: no detectable signs of sedation | relief from itching and scratching (pruritus ani): complete relief from itching and scratching | relief of scratching, duration (common scratching): more than 8 hours
